Results reported in publication PMC7083937, “The ribosome-associated complex RAC serves in a relay that directs nascent chains to Ssb” (Nature Communications, 2020).

Tests used:
[1] = tested on: nascent Pgk1-150; experiment: crosslinking to ribosome-bound nascent chain; format: binding, Saccharomyces cerevisiae; conditions: wild type translation extract; BS3; compared with Pgk1-50
Excerpt: (§1) DNA templates for transcription reactions were generated by PCR using pSPUTK-Pgk1[20] as a template. Reverse primers were designed such, that PCR products encoded different length PGK1 sequences, which all lacked a stop codon. The length of the resulting translation products, which remain ribosome-bound, is indicated in Results and Figure Legends. Transcripts were generated using SP6 polymerase (Thermo Fischer Scientific) as previously described. RNCs were generated via translation reactions primed with the stop codon-less transcripts at 20 °C in the presence of [^35S]-methionine (Hartmann-Analytic) for 80 min[20],[54]. Translation reactions were stopped by the addition of 50 µg/ml cycloheximide final concentration and subsequently RNCs were isolated via centrifugation at 400.000 g for 20 min in a TLA-100 or TLA-100.2 rotor (Beckman Coulter)[20].
(§2) Chemical crosslinking of ribosome-bound nascent chains to Ssb, Zuo1, or Ssz1 was analyzed essentially as described. In brief, resuspended RNCs were incubated in the presence of 400 µM BS^3 (bis-(sulfosuccinimidyl)-suberate, spacer length 1.14 nm, Thermo Scientific) for 20 min on ice and crosslinking was then quenched by the addition of TRIS base (tris(hydroxymethyl)aminomethane) to a final concentration of 50 mM. Crosslinked protein samples were precipitated by the addition of TCA (final concentration 5%), pellets were collected by centrifugation and were dissolved in dissociation buffer (200 mM TRIS/HCl pH 7.5, 4% SDS; 10 mM EDTA, 100 µg/ml BSA, protease inhibitor mix, 1 mM PMSF). Totals shown in Figs. 1,3 and Supplementary Fig. 1 before (total) and after BS^3 crosslinking (total + BS^3) represent 5% of the dissolved material employed for immunoprecipitation reactions. The resulting denatured protein samples were used to identify crosslink products between Ssb, Zuo1, or Ssz1 and nascent chains via affinity purification under denaturing conditions. To that end, protein A sepharose beads (GE Healthcare) were pre-coated with antibodies directed against Ssb, Zuo1, or Ssz1 and subsequently the denatured crosslinked material was allowed to bind to the beads resuspended in immunoprecipitation buffer (10 mM TRIS/HCl pH 7.5, 150 mM NaCl, 5 mM EDTA, 1% Triton X-100, protease inhibitor mix, 0.5 mM PMSF)[20]. Crosslink products bound to protein A sepharose beads were released by addition of SDS-sample buffer at 95 °C for 10 min. Samples were analyzed on Tris-Tricine gels[56] followed by autoradiography. Loading was normalized according to the signal of [^35S]-labelled nascent Pgk1 in the total prior to crosslinking. Relative crosslinking efficiencies between nascent Pgk1-100 and Zuo1 or Ssz1, respectively were determined as follows. For each biological replicate, band intensities of non-crosslinked nascent Pgk1-100 and of Pgk1-100 crosslink products (XL-Zuo1 or XL-Ssz1) was determined on a single autoradiograph for wild type RAC and the different mutant variants of RAC. The crosslinking efficiency (XL-Zuo1/Pgk1-100 or XL-Ssz1/Pgk1-100) of each sample was calculated and subsequently the ratio of XL-Zuo1/Pgk1-100 or XL-Ssz1/Pgk1-100 in the presence of wild type RAC was set to 1 in order to normalize the biological replicates (see Fig. 3c,d). The original data are provided as a Source Data file.

[2] = tested on: nascent Pgk1-40; experiment: crosslinking to ribosome-bound nascent chain; format: binding, Saccharomyces cerevisiae; conditions: wild type translation extract; BS3
Excerpt: as §1, §2

[3] = tested on: nascent Pgk1-45; experiment: crosslinking to ribosome-bound nascent chain; format: binding, Saccharomyces cerevisiae; conditions: wild type translation extract; BS3
Excerpt: as §1, §2

[4] = tested on: nascent Pgk1-50; experiment: crosslinking to ribosome-bound nascent chain; format: binding, Saccharomyces cerevisiae; conditions: wild type translation extract; BS3
Excerpt: as §1, §2

[5] = tested on: nascent Pgk1-100; experiment: crosslinking to ribosome-bound nascent chain; format: binding, Saccharomyces cerevisiae; conditions: BS3
Excerpt: as §1, §2
For complementation experiments translation reactions were performed in either ∆ssb1∆ssb2 or ∆ssb1∆ssb2∆zuo1∆ssz1 translation extract as indicated. Complementation with purified Ssb1 was performed by adding His6-tagged ScSsb1 at a final concentration of 2 µM to the translation reaction prior to the addition of mRNA. Ribosome-free cytosolic extract of various mutant yeast strains for complementation experiments as indicated in Results and Figure Legends was generated as follows. The A260 of a total cell extract prepared by the glass beads method (see above) was determined, and the total cell extract was subsequently adjusted to a final concentration of 800 mM KOAc. […]

[6] = tested on: ribosomes; experiment: ribosome-binding assay; design: species or system Saccharomyces cerevisiae; conditions: for fraction of Ssb ribosome-bound: total cell extract
Protocol: Yeast strains were grown to early log phase on YPD, prior to harvest cycloheximide was added to a final concentration of 100 µg/ml, and subsequently cells were collected via centrifugation at 5000 g. Cell pellets were resuspended in ribosome-binding buffer (20 mM Hepes/KOH pH 7.4, 2 mM Mg(OAc)2, 120 mM KOAc, 100 µg/ml cycloheximide, 2 mM DTT, 1 mM PMSF, protease inhibitor mix) and total cell extracts were prepared by the glass beads method. After a clearing spin at 20.000 g, each 60 µl of the total glass beads extract (A260 between 80 and 100 mAU) was loaded onto a 90 µl sucrose cushion (25% sucrose, 20 mM Hepes/KOH pH 7.4, 120 mM KOAc, 2 mM Mg(OAc)2, 2 mM DTT, 1 mM PMSF, protease inhibitor mix). After centrifugation at 400.000 g at 4 °C for 25 min the cytosolic supernatant was collected and the ribosomal pellet was resuspended in 300 µl ribosome-binding buffer. Aliquots of the total cell extract, cytosolic supernatant, and resuspended ribosomal pellets were precipitated by addition of TCA (trichloroacetic acid) to a final concentration of 5%. TCA pellets were dissolved in SDS-sample buffer and were analyzed on 10% Tris-Tricine gels followed by immunoblotting.

[7] = Δssb1Δssb2 extract, purified Ssb1, 2 µM, added prior to translation

Ssb: ribosome-associated Hsp70 homolog of yeast, isoforms SSB1 and SSB2
crosslink to nascent Pgk1-150 [1]: more efficient crosslinks
crosslink to nascent Pgk1-40 [2]: did not form crosslink products with Pgk1-40 or Pgk1-45
crosslink to nascent Pgk1-45 [3]: did not form crosslink products with Pgk1-40 or Pgk1-45
crosslink to nascent Pgk1-50 [4]: weak crosslink
crosslinking of Ssb to nascent Pgk1 when RAC or Ssz1 is absent from ribosomes, reduced to ([5]; Fig. 1e set-up): < 1/6
crosslink to nascent Pgk1-100 ([5]; wild type translation extract, compared with Pgk1-50): more efficient crosslinks
crosslink of Ssb to nascent Pgk1-100 upon adding purified Ssb [5, 7]: restored
effect of added purified Ssb on crosslinking to the RAC subunits [5, 7]: strongly reduced
crosslink of Ssb to nascent Pgk1-100, dependence on RAC ([5]; Δzuo1Δssz1Δssb1Δssb2 RNCs complemented with ribosome-free extracts): Only in the presence of wild type RAC nascent Pgk1-100 formed an efficient crosslink to Ssb
ribosome-binding of Ssb when RAC or Ssz1 is absent from ribosomes, reduced to ([6]; in vitro translation system, Zuo1ΔN49, no Ssz1, or no Ssz1 and Zuo1): about 1/3
fraction of Ssb ribosome-bound ([6]; cells expressing RAC-∆N49): about 1/ 3
fraction of Ssb ribosome-bound ([6]; wild type, RAC-∆N8, or RAC-∆N16): About 2/3
